Results taken from patent US10703733B2, “MCL-1 inhibitors” (Gilead Sciences, Inc., priority 2018, dated 2020).
Like-named read-outs stand apart in the source and are kept apart here.

Columns and labels:
[1] = target: MCL-1/Bim interaction (recombinant human MCL-1 protein, residues 171-327; biotinylated human Bim peptide, residues 51-76) (Homo sapiens (Human), UniProt Q07820); experiment: MCL-1/Bim Binding AlphaLISA Assay; conditions: 0.0625 nM 6xHis-Mcl-1 (171-327), 0.0625 nM biotinylated-Bim peptide
Sequence of MCL-1/Bim interaction (recombinant human MCL-1 protein, residues 171-327; biotinylated human Bim peptide, residues 51-76) (Q07820 171-327): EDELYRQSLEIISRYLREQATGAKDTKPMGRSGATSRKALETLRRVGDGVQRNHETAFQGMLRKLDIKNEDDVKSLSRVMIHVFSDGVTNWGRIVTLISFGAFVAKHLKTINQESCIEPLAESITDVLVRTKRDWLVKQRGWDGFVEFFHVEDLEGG
Method: MCL-1/Bim Binding AlphaLISA Assay.
Inhibition of the MCL-1 and Bim interaction was measured in the following AlphaLISA assay.
Recombinant human MCL-1 protein (C-terminal 6×His Tagged Mcl-1 containing residues 171-327) was generated at Gilead Sciences, Inc. (Foster City, Calif.). A biotinylated peptide derived from human Bim (residues 51-76) was purchased from CPC Scientific (Sunnyvale, Calif.). (CPC 834113). AlphaLISA anti-6His-acceptor beads (AL128R), AlphaScreen Streptavidin donor beads (6760002B), and Proxiplate-384 Plus (6008289) were purchased from PerkinElmer.
The AlphaLISA assay was performed in a 384-well Proxiplate in a total volume of […]. The reaction mixture contained 0.0625 nM 6×His-Mcl-1 (171-327), 0.0625 nM biotinylated-Bim peptide, 10 μg/mL AlphaLISA anti-6×His-AlphaLISA acceptor beads, […] AlphaScreen streptavidin donor beads, and serially diluted test compounds in the binding buffer (20 mM Hepes, pH 7.5 (Teknova H1035); 150 mM NaCl (Promega V4221); 0.002% Brij 35 (Thermo Scientific 20150); 1 mM Dithiothreitol (DTT) Solution (Affymetrix 70726); 0.01% BSA (BioLabs B9000S)). 1,000×test compounds were pre-spotted onto 384-well Proxiplate (Labcyte Echo) by Echo 555 Liquid Handler (Labcyte Inc., San Jose, Calif.) followed by incubation of 5 μl Mcl-1(171-327) for 1 hour. Then 5 μL Bim (51-76) was added and incubated for 2 hours. Five μL AlphaLISA anti-6His-AlphaLISA acceptor beads were then added for 1 hour followed by addition of 5 μL AlphaScreen streptavidin donor beads for 1 hour. The reaction plates were then read on an Envision multimode reader (PerkinElmer) using AlphaScreen settings. […] Percent inhibition was calculated as shown below: % Inhibition=100%*(Well−Neg)/(Pos−Neg) Neg: negative control, DMSO Pos: positive control, no Mcl-1 protein, no biotinylated-Bim peptide

[2] = system: SKBR3 cells; experiment: SKBR3 Cell Viability Assay (CellTiter Glo); format: cell-based; conditions: CellTiter Glo luminescence, read-out: MCL-1 CV SKBR3 EC50
Summary of the method: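 SKBR3 cells (6,000/well) in McCoy 5A + 10% FBS exposed to serially diluted compound for 72 h at 37° C., 5% CO2. Viability by CellTiter Glo luminescence; % inhibition normalized to DMSO (negative) and 10 μM puromycin (positive).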

Row | Compound | IC50 [1] | EC50 ([2]; 72 hours) | EC50 ([2]; Homo sapiens, SK-BR-3, 72 h)
1 | CO[C@H]1/C=C/C[C@H](C)C[S@@](=O)(NC(=O)N[C@@H]2C[C@H]2c2cnn(C)c2)=NC(=O)c2ccc3c(c2)N(C[C@@H]2CC[C@H]21)C[C@@]1(CCCc2cc(Cl)ccc21)CO3 (single isomer, unassigned) [Example 183] | 0.132 nM | 195 nM | 
2 | CO[C@H]1/C=C/C[C@H](C)[C@@H](C)[S@@](=O)(NC(=O)[C@H]2C[C@@](C)(O)C2)=NC(=O)c2ccc3c(c2)N(C[C@@H]2CC[C@H]21)C[C@@]1(CCCc2cc(Cl)ccc21)CO3 [Example 166] | 0.067 nM |  | 79.8 nM
3 | CO[C@H]1/C=C/C[C@H](C)C[S@@](=O)(NC(=O)N[C@@H]2C[C@H]2c2cnn(C)c2)=NC(=O)c2ccc3c(c2)N(C[C@@H]2CC[C@H]21)C[C@@]1(CCCc2cc(Cl)ccc21)CO3 [Example 129] | 0.077 nM |  | 64.7 nM
4 | CO[C@H]1/C=C/CCC[S@@](=O)(NC(=O)CCc2c(C)cnn2C)=NC(=O)c2ccc3c(c2)N(C[C@@H]2CC[C@H]21)C[C@@]1(CCCc2cc(Cl)ccc21)CO3 [Example 103] | 1 nM |  | 10000 nM
5 | CO[C@H]1/C=C/C[C@H](C)C[S@@](=O)(NC(=O)N[C@@H]2CC2(F)F)=NC(=O)c2ccc3c(c2)N(C[C@@H]2CC[C@H]21)C[C@@]1(CCCc2cc(Cl)ccc21)CO3 [Example 440] | 0.051 nM |  | 284 nM
6 | COc1nn(C)cc1C(=O)N[S@@]1(=O)=NC(=O)c2ccc3c(c2)N(C[C@@H]2CC[C@H]2[C@@H](OC(=O)[C@@H](N)C(C)C)/C=C/C[C@H](C)[C@H]1C)C[C@@]1(CCCc2cc(Cl)ccc21)CO3 [Example 254] | 0.126 nM |  | 155 nM
7 | CO[C@H]1/C=C/CCC[S@@](=O)(NC(=O)CCc2ccccn2)=NC(=O)c2ccc3c(c2)N(C[C@@H]2CC[C@H]21)C[C@@]1(CCCc2cc(Cl)ccc21)CO3 [Example 47] | 0.1 nM |  | 758 nM
8 | C[C@@H]1[C@@H](C)C/C=C/[C@H](O)[C@@H]2CC[C@H]2CN2C[C@@]3(CCCc4cc(Cl)ccc43)COc3ccc(cc32)C(=O)N=[S@]1(=O)NC(=O)c1cc2n(c1)C[C@H](CO)OC2 [Example 329] | 0.087 nM |  | 57 nM
9 | CO[C@H]1/C=C/CCC[S@@](=O)(NC(=O)CCn2cccn2)=NC(=O)c2ccc3c(c2)N(C[C@@H]2CC[C@H]21)C[C@@]1(CCCc2cc(Cl)ccc21)CO3 [Example 39] | 0.1 nM |  | 262 nM
10 | COc1nn(C)cc1C(=O)N[S@@]1(=O)=NC(=O)c2ccc3c(c2)N(C[C@@H]2CC[C@H]2[C@@H](OC)/C=C/[C@H](OCCN(C)C)[C@H](C)C1)C[C@@]1(CCCc2cc(Cl)ccc21)CO3 [Example 403] | 0.059 nM |  | 13.8 nM
11 | COC1CN(C(=O)N[S@@]2(=O)=NC(=O)c3ccc4c(c3)N(C[C@@H]3CC[C@H]3[C@@H](OC)CCC[C@H](C)C2)C[C@@]2(CCCc3cc(Cl)ccc32)CO4)C1 [Example 244] | 0.032 nM |  | 116 nM
12 | CO[C@H]1/C=C/C[C@H](C)C[S@@](=O)(NC(=O)N[C@@H]2C[C@@H]2C)=NC(=O)c2ccc3c(c2)N(C[C@@H]2CC[C@H]21)C[C@@]1(CCCc2cc(Cl)ccc21)CO3 [Example 162] | 0.18 nM |  | 136 nM
13 | CO[C@H]1/C=C/CCC[S@@](=O)(NC(=O)CCc2nccn2C)=NC(=O)c2ccc3c(c2)N(C[C@@H]2CC[C@H]21)C[C@@]1(CCCc2cc(Cl)ccc21)CO3 [Example 43] | 1.6 nM |  | 2410 nM
14 | CCO[C@H]1/C=C/C[C@H](C)C[S@@](=O)(NC(=O)c2cn(C)nc2OC)=NC(=O)c2ccc3c(c2)N(C[C@@H]2CC[C@H]21)C[C@@]1(CCCc2cc(Cl)ccc21)CO3 [Example 367] | 0.063 nM |  | 101 nM
15 | COc1cc(C(=O)N[S@@]2(=O)=NC(=O)c3ccc4c(c3)N(C[C@@H]3CC[C@H]3[C@@H](OC)/C=C/C[C@H](C)C2)C[C@@]2(CCCc3cc(Cl)ccc32)CO4)c(OC)nn1 [Example 278] | 0.089 nM |  | 80.5 nM
16 | COc1nn(C)cc1C(=O)N[S@@]1(=O)=NC(=O)c2ccc3c(c2)N(C[C@@H]2CC[C@H]2[C@@H](OC)/C=C/[C@H](S(=O)(=O)c2ccc(C)cc2)[C@H](C)C1)C[C@@]1(CCCc2cc(Cl)ccc21)CO3 [Example 377] | 0.106 nM | 34 nM | 

Row | Compound | IC50 [1] | EC50 ([2]; 72 hours) | EC50 ([2]; Homo sapiens, SK-BR-3, 72 h)
17 | CO[C@H]1/C=C/CCC[S@@](=O)(NC(=O)NCc2ccncc2)=NC(=O)c2ccc3c(c2)N(C[C@@H]2CC[C@H]21)C[C@@]1(CCCc2cc(Cl)ccc21)CO3 [Example 79] | 0.4 nM |  | 3030 nM
18 | COc1nnccc1C(=O)N[S@@]1(=O)=NC(=O)c2ccc3c(c2)N(C[C@@H]2CC[C@H]2[C@@H](OC)/C=C/C[C@H](C)C1)C[C@@]1(CCCc2cc(Cl)ccc21)CO3 [Example 458] | 0.079 nM |  | 376 nM
19 | CO[C@H]1/C=C/C[C@H](C)C[S@@](=O)(NC(=O)N[C@H]2C[C@@H]2C)=NC(=O)c2ccc3c(c2)N(C[C@@H]2CC[C@H]21)C[C@@]1(CCCc2cc(Cl)ccc21)CO3 [Example 117] | 0.113 nM |  | 82.9 nM
20 | CO[C@H]1/C=C/C[C@H](C)C[S@@](=O)(NC(=O)c2cc3n(c2)CCOC3)=NC(=O)c2ccc3c(c2)N(C[C@@H]2CC[C@H]21)C[C@@]1(CCCc2cc(Cl)ccc21)CO3 [Example 139] | 0.116 nM |  | 94.1 nM
21 | CO[C@H]1/C=C/C[C@H](C)C[S@@](=O)(NC(=O)c2cn(C)nc2N)=NC(=O)c2ccc3c(c2)N(C[C@@H]2CC[C@H]21)C[C@@]1(CCCc2cc(Cl)ccc21)CO3 [Example 173] | 0.087 nM |  | 67.9 nM
22 | CO[C@H]1/C=C/C[C@H](C)C[S@@](=O)(NC(=O)N[C@@H]2C[C@H]2C(F)F)=NC(=O)c2ccc3c(c2)N(C[C@@H]2CC[C@H]21)C[C@@]1(CCCc2cc(Cl)ccc21)CO3 [Example 310] | 0.074 nM |  | 230 nM
23 | COC(=O)N[C@H](C(=O)N1CCN(C(=O)N[S@@]2(=O)=NC(=O)c3ccc4c(c3)N(C[C@@H]3CC[C@H]3[C@@H](OC)/C=C/C[C@H](C)C2)C[C@@]2(CCCc3cc(Cl)ccc32)CO4)C[C@@H]1C)C(C)C [Example 285] | 0.131 nM |  | 79.7 nM
24 | CO[C@H]1/C=C/C[C@H](C)C[S@@](=O)(NC(=O)CO[C@H]2CCOC[C@H]2F)=NC(=O)c2ccc3c(c2)N(C[C@@H]2CC[C@H]21)C[C@@]1(CCCc2cc(Cl)ccc21)CO3 [Example 416] | 0.047 nM |  | 131 nM
25 | CO[C@H]1CCC[C@H](C)C[S@@](=O)(NC(=O)NC2CC2)=NC(=O)c2ccc3c(c2)N(C[C@@H]2CC[C@H]21)C[C@@]1(CCCc2cc(Cl)ccc21)CO3 [Example 170] | 0.06 nM |  | 210 nM
26 | CO[C@H]1/C=C/C[C@H](C)C[S@@](=O)(NC(=O)N[C@H]2C[C@@H]2C(F)(F)F)=NC(=O)c2ccc3c(c2)N(C[C@@H]2CC[C@H]21)C[C@@]1(CCCc2cc(Cl)ccc21)CO3 [Example 243] | 0.059 nM |  | 41.7 nM
27 | CO[C@H]1/C=C/C[C@H](C)C[S@@](=O)(NC(=O)C2CC(C)(OC)C2)=NC(=O)c2ccc3c(c2)N(C[C@@H]2CC[C@H]21)C[C@@]1(CCCc2cc(Cl)ccc21)CO3 (stereo partly shown) [Example 169] | 0.048 nM |  | 61 nM
28 | CO[C@H]1/C=C/C[C@H](C)[C@@H](C)[S@@](=O)(NC(=O)NC2CC2)=NC(=O)c2ccc3c(c2)N(C[C@@H]2CC[C@H]21)C[C@@]1(CCCc2cc(Cl)ccc21)CO3 [Example 414] | 0.217 nM |  | 154 nM
29 | CO[C@H]1/C=C/CCC[S@@](=O)(NC(=O)N2CCS(=O)(=O)CC2)=NC(=O)c2ccc3c(c2)N(C[C@@H]2CC[C@H]21)C[C@@]1(CCCc2cc(Cl)ccc21)CO3 [Example 73] | 0.3 nM |  | 2450 nM
30 | CO[C@H]1/C=C/C[C@H](C)C[S@@](=O)(NC(=O)c2ccc3c(c2)CCOC3)=NC(=O)c2ccc3c(c2)N(C[C@@H]2CC[C@H]21)C[C@@]1(CCCc2cc(Cl)ccc21)CO3 [Example 430] | 0.17 nM |  | 139 nM
31 | CO[C@H]1/C=C/C[C@H](C)C[S@@](=O)(NC(=O)c2cc3n(c2)CCCC3)=NC(=O)c2ccc3c(c2)N(C[C@@H]2CC[C@H]21)C[C@@]1(CCCc2cc(Cl)ccc21)CO3 [Example 415] | 0.526 nM |  | 105 nM
32 | COc1nn(C)cc1C(=O)N[S@@]1(=O)=NC(=O)c2ccc3c(c2)N(C[C@@H]2CC[C@H]2[C@@H](OC(=O)CN(C)C(=O)CNC(C)(C)C)/C=C/C[C@H](C)[C@H]1C)C[C@@]1(CCCc2cc(Cl)ccc21)CO3 [Example 293] | 0.058 nM |  | 69.2 nM
